Target: T1, Human TREX1 enzyme (amino acids 1-242) (Homo sapiens, UniProt Q9NSU2)
T1 construct: Human TREX1 enzyme (amino acids 1-242)
T1 sequence (Q9NSU2 1-242): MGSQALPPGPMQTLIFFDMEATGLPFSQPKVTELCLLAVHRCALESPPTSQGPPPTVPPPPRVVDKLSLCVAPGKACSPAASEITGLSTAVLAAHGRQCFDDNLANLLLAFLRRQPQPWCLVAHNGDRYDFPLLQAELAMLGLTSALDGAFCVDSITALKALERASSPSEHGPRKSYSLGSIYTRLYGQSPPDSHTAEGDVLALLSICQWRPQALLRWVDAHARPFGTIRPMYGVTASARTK
Test: Human TREX1 enzymatic assay with dsDNA native oligonucleotide (Picogreen fluorescence)
Assay type: biochemical
Conditions: 2 mM dithiothreitol in assay buffer; 50 nM dsDNA oligonucleotide; 30 min preincubation at 25° C.; read-out: TREX1/Human + DTT IC50 AVG
Outline: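 Remaining dsDNA quantified by Picogreen fluorescence after EDTA quench, with no-enzyme and DMSO wells as controls. Reactions used 50 nM annealed oligonucleotide for 5–15 min at 25 °C, after a 30 min compound–enzyme preincubation (0.8–0.16 nM TREX1; 2% DMSO; pH 7.7 Tris, 5 mM MgCl2).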

Row | IC50 | Compound
1 | > 100 µM | C#CCCC1(CCC(=O)N2CCN(c3ccc4[nH]c(-c5cc(O)c(O)c(OC)c5)nc4c3)CC2)N=N1 [Example 88, 3-(3-(but-3-yn-1-yl)-3H-diazirin-3-yl)-1-(4-(2-(3,4-dihydroxy-5-methoxyphenyl)-1H-benzo[d]imidazol-5-yl)piperazin-1-yl)propan-1-one]
2 | > 100 µM | COc1cc(-c2nc3ccccc3n2C2COC2)cc(C(=O)O)c1O [Example 89, 2-hydroxy-3-methoxy-5-(1-(oxetan-3-yl)-1H-benzo[d]imidazol-2-yl)benzoic acid]
3 | 10 to 100 µM | O=C(O)c1c(O)cc(-c2nc3ccncc3[nH]2)cc1F [Example 90, 2-fluoro-6-hydroxy-4-(3H-imidazo[4,5-c]pyridin-2-yl)benzoic acid]
4 | 10 to 100 µM | COc1cc(-c2nc3cc(N4CCNC(C)(C)C4)ccc3[nH]2)cc(O)c1O [Example 91, 5-(5-(3,3-dimethylpiperazin-1-yl)-1H-benzo[d]imidazol-2-yl)-3-methoxybenzene-1,2-diol]
5 | > 100 µM | COc1cc(-c2nc3cc(N(C)C)ccc3[nH]2)cc(O)c1O [Example 92, 5-(5-(dimethylamino)-1H-benzo[d]imidazol-2-yl)-3-methoxybenzene-1,2-diol]
6 | > 100 µM | COc1cc(-c2nc3ccncc3n2C)c(-c2cccnc2)c(O)c1O [Example 93, 6-methoxy-4-(3-methyl-3H-imidazo[4,5-c]pyridin-2-yl)-3-(pyridin-3-yl)benzene-1,2-diol]
7 | 10 to 100 µM | COc1cc(-c2nc3nc(N4CCOCC4)ccc3[nH]2)cc(O)c1O [Example 94, 3-methoxy-5-(5-morpholino-1H-imidazo[4,5-b]pyridin-2-yl)benzene-1,2-diol]
8 | 10 to 100 µM | COc1cc(-c2nc3cc(N4CCOCC4)ccc3n2C2CCOC2)cc(O)c1O (stereo not drawn) [Example 95, 3-methoxy-5-(5-morpholino-1-(tetrahydrofuran-3-yl)-1H-benzo[d]imidazol-2-yl)benzene-1,2-diol]
9 | 10 to 100 µM | COc1cc(-c2nc3cc(N4CCN(C(=O)c5ccncc5)CC4)ccc3[nH]2)cc(O)c1O [Example 96, (4-(2-(3,4-dihydroxy-5-methoxyphenyl)-1H-benzo[d]imidazol-5-yl)piperazin-1-yl)(pyridin-4-yl)methanone]
10 | 10 to 100 µM | COc1cc(-c2nc3cc(N4CCN(C(=O)c5ccccn5)CC4)ccc3[nH]2)cc(O)c1O [Example 97, (4-(2-(3,4-dihydroxy-5-methoxyphenyl)-1H-benzo[d]imidazol-5-yl)piperazin-1-yl)(pyridin-2-yl)methanone]
11 | 1 to 10 µM | COc1cc(-c2nc3cc(N4CCN(C(=O)c5ccc(C)cc5)CC4)ccc3[nH]2)cc(O)c1O [Example 98, (4-(2-(3,4-dihydroxy-5-methoxyphenyl)-1H-benzo[d]imidazol-5-yl)piperazin-1-yl)(p-tolyl)methanone]
12 | 1 to 10 µM | COc1cc(-c2nc3cc(N4CCN(C(=O)c5ccccc5C)CC4)ccc3[nH]2)cc(O)c1O [Example 99, (4-(2-(3,4-dihydroxy-5-methoxyphenyl)-1H-benzo[d]imidazol-5-yl)piperazin-1-yl)(o-tolyl)methanone]
13 | > 100 µM | COc1cc(-c2nc3cc(N4CCN(C(=O)c5ccc(C)cc5C)CC4)ccc3[nH]2)cc(O)c1O [Example 100, (4-(2-(3,4-dihydroxy-5-methoxyphenyl)-1H-benzo[d]imidazol-5-yl)piperazin-1-yl)(2,4-dimethylphenyl)methanone]
14 | 10 to 100 µM | COc1cc(-c2nc3cc(N4CCN(C(=O)c5cccc(C(=O)O)c5)CC4)ccc3[nH]2)cc(O)c1O [Example 101, 3-(4-(2-(3,4-dihydroxy-5-methoxyphenyl)-1H-benzo[d]imidazol-5-yl)piperazine-1-carbonyl)benzoic acid]
15 | > 100 µM | COc1cc(-c2nc3cc(N4CCN(C(=O)c5ccc(C(F)(F)F)cc5)CC4)ccc3[nH]2)cc(O)c1O [Example 102, (4-(2-(3,4-dihydroxy-5-methoxyphenyl)-1H-benzo[d]imidazol-5-yl)piperazin-1-yl)(4-(trifluoromethyl)phenyl)methanone]

— patent US20230234943A1, “TREX1 INHIBITORS AND USES THEREOF” (Tempest Therapeutics, Inc., priority 2020, published 2023)
